Set-up in all cases: species or system mouse
The subject of test [1] is de-endothelialized, pressurized MCA segments (C57BL/6 male). Briefly: EtOH-induced constriction of pressurized MCA in vitro. The following applies: for change in artery diameter (EtOH-induced constriction): Fig 8B, individual replicates. The source says:
Eight-12 week-old C57BL/6J and KCNMB1^−/− on C57BL/6 background mice of both sexes were deeply anesthetized with isoflurane via inhalation in a tightly sealed jar. Resistance size MCAs (~100 μm in external diameter) were dissected out of the mouse brains after animal euthanasia with sharp scissors. For de-endothelialized records, the endothelium was removed by passing an air bubble into the vessel lumen for 90 s[30]. This method has been consistently used by our group and validated using endothelium-dependent versus endothelium-independent vasodilators[16],[26]. Arteries were cannulated as previously described by our group[26],[40]. MCAs were cut into 5 to 10 mm-long segments under a microscope (Nikon SMZ645). The segment was cannulated at each end, and the artery exterior was continuously perfused with physiologic sodium saline (PSS) of the following composition (mM): 119 NaCl, 4.7 KCl, 1.2 KH2PO4, 1.6 CaCl2, 1.2 MgSO4, 0.023 EDTA, 11 glucose, 24 NaHCO3, pH=7.4. PSS was continuously bubbled with an O2/CO2/N2 (21/5/74%) gas mixture and maintained at 35–37 °C. The artery external wall diameter was measured using the automatic edge-detection function of lonWizard software (lonOptix) via Sanyo VCB-3512T camera (Sanyo Electric Co.). Arteries were first incubated at an intravascular pressure of 10 mm Hg for 10 min. Then intravascular pressure was increased to 60 mmHg and held steady throughout the experiment to induce myogenic tone development and maintenance[19],[30],[51]. Each artery segment was exposed to PROG, PROG-oxime (in presence and absence of 1 µM paxilline) only once to avoid development of desensitization during repeated applications of PROG-containing solution. To determine arterial viability, arterial contractility was probed with a high KCl solution at the end of each experiment. The high KCl solution was composed of the following composition (mM): 63.7 NaCl, 60 KCl, 1.2 KH2PO4, 1.2 MgSO4, 0.023 EDTA, 11 glucose, 24 NaHCO3, 1.6 CaCl2, pH=7.4. Like PSS, the high-KCl solution was continuously bubbled with O2/CO2/N2 (21/5/74%) gas mixture and maintained at 35–37 °C.

Test [2] concerns de-endothelialized MCA segments of KCNMB1-/- mice permeabilized with β1 constructs. The test can be described thus: Cerebral artery diameter in vitro, KCNMB1-/- MCA permeabilized with β1 constructs. The following applies: Y32V and W163I substitutions; 50 mM EtOH. From the text: Eight-12 week-old C57BL/6J and KCNMB1^−/− on C57BL/6 background mice of both sexes were deeply anesthetized with isoflurane via inhalation in a tightly sealed jar. […] For de-endothelialized records, the endothelium was removed by passing an air bubble into the vessel lumen for 90 s[30]. This method has been consistently used by our group and validated using endothelium-dependent versus endothelium-independent vasodilators[16],[26]. Arteries were cannulated as previously described by our group[26],[40]. […] PSS was continuously bubbled with an O2/CO2/N2 (21/5/74%) gas mixture and maintained at 35–37 °C. The artery external wall diameter was measured using the automatic edge-detection function of lonWizard software (lonOptix) via Sanyo VCB-3512T camera (Sanyo Electric Co.). Arteries were first incubated at an intravascular pressure of 10 mm Hg for 10 min. Then intravascular pressure was increased to 60 mmHg and held steady throughout the experiment to induce myogenic tone development and maintenance[19],[30],[51]. […] To determine arterial viability, arterial contractility was probed with a high KCl solution at the end of each experiment. […] Like PSS, the high-KCl solution was continuously bubbled with O2/CO2/N2 (21/5/74%) gas mixture and maintained at 35–37 °C. […]

Test [3] concerns MCA branches (C57BL/6J). Briefly: EtOH-induced cerebrovascular constriction in vivo (cranial window). As to conditions: individual replicates; for artery diameter, normalized to time 0: Fig 8E. The protocol:
Eight-12 week-old male and female C57BL/6J mice were anesthetized with a mixture of xylazine/ketamine (12/100 mg per kg) and kept anesthetized for the duration of the experiment with subsequent ketamine doses (50 mg/kg of weight) as needed. A catheter was inserted into the carotid artery so that the infusion went straight to the brain rather than towards the thoracic cavity. An area of the skull was cleared of tissue and thinned to expose the branching arteries originating from the MCA on the side the catheter was inserted, above the zygomatic arch, between the ear and eye of the skull[19],[34]. The exposed arteries branching out from the MCA were monitored using a Leica MC170 HD microscope with a mounted camera (Leica M125 C) connected to a computer monitor. Drugs were diluted to their final concentration in sodium saline (0.9% NaCl) and administered via catheter at 0.1 ml/25 g of weight. Cranial window images before and after drug administration were acquired every 60 seconds for subsequent analysis.

Several values for one entry are separate records, joined by “and”; a condition that tells them apart may be missing. Equal entries are not always repeated.

`CCO` [EtOH, ethanol]: the “EtOH concentration close to EC100 for MCA constriction” value in test [1] is roughly 50 mM. The “change in artery diameter (EtOH-induced constriction)” value was -3.481 and -2.957 and -4.155 and -5.135 and -0.8602 in test [1] (EtOH 10mM); -3.0303 and -4.876 and -3.6836 and -8.271 and -6.594 in test [1] (EtOH 35mM); -6.879 and -7.897 and -7.7 and -14.4262 and -10.9422 in test [1] (EtOH 50mM); -7.692 and -11.3856 and -9.864 and -10.7879 and -9.705 in test [1] (EtOH 75mM). Also, in test [2], the “constriction of MCA” value is “constriction was still observed”. For the same molecule, the “artery diameter, normalized to time 0” value in test [3] (time 0) was 1 (5×) and 0.9973; in test [3] (time 1), 1 (2×) and 0.9893 and 0.9693 and 1.069 and 0.888; in test [3] (time 2), 0.8687 and 0.8304 and 0.7155 and 0.777 and 1.057 and 0.6934; in test [3] (time 3) it was 0.7831 and 1 and 0.7857 and 0.8444 and 1.014 and 0.8086; in test [3] (time 4), 0.7004 and 0.7657 and 0.7155 and 0.7188 and 0.9449 and 0.6934; in test [3] (time 5) it was 0.6515 and 0.8304 and 0.7857 and 0.7691 and 0.9335 and 0.8086. Moreover, the “artery diameter, normalized to time 0” value was 0.7831 and 1 and 0.8849 and 0.8691 and 0.8118 and 0.8086 in test [3] (time 6); 0.7397 and 0.7657 and 0.8849 and 0.7997 and 0.85 and 0.8086 in test [3] (time 7); 0.7004 and 1 and 0.9584 and 0.8381 and 0.823 and 0.6934 in test [3] (time 8); 0.6515 and 0.9469 and 0.8849 and 0.7942 and 0.8049 and 0.6934 in test [3] (time 9); 0.6515 and 1 and 0.8849 and 0.8075 and 0.8892 and 0.6934 in test [3] (time 10); 0.7831 and 1 and 0.8231 and 0.8249 and 0.8605 and 0.6934 in test [3] (time 11). In addition, the “artery diameter, normalized to time 0” value is 0.7004 and 0.9469 and 0.9893 and 0.8811 and 0.8191 and 0.888 in test [3] (time 12); 0.6515 and 0.8304 and 0.8849 and 0.7651 and 0.797 and 0.6934 in test [3] (time 13). Further, the “artery diameter, normalized (group comparison)” value in test [3] (Fig 8F) was 0.6886 and 0.733 and 0.6331 and 0.6127 and 0.7046 and 0.7541.

The values are drawn from paper PMC10636063, “Progesterone activation of β1-containing BK channels involves two binding sites” (Nature Communications, 2023).
